# Measured values taken from patent US4981860A, “Pyridinium nitrate, composition containing same and their use for inhibiting platelet activating factor” (Takeda Chemical Industries, Ltd., priority 1989, dated 1991).
# Where two headings read alike, the source gives them in different places.
# Columns and labels:
# [1] = system: PAF-induced rabbit platelet aggregation; assay: Inhibition of PAF-induced rabbit platelet aggregation (platelet rich plasma); assay type: cell-based; conditions: Oryctolagus cuniculus, read-out: rate of inhibition of PAF-induced rabbit platelet aggregation
# Experimental: Blood was drawn from a male rabbit directly by cardiopuncture with a syringe containing 3.15% citric acid as an anticoagulant (one volume to 9 volumes of blood). By centrifugation at 800 rpm for 10 minutes at room temperature, platelet rich plasma (PRP) was obtained. The residual blood was centrifuged again at 3000 rpm for 10 minutes to give platelet poor plasma (PPP) as the supernatant. PRP was diluted with PPP so that the platelet count might be adjusted to about 500,000 cells/μl. 250 μl of this PRP was stirred at 37° C. for 2 minutes, and the test substance [the compound (6) obtained in Production Example 1] was added. The mixture was stirred again for 2 minutes, followed by the addition of PAF of a certain concentration. Platelet aggregation was measured with a platelet aggregometer (manufactured by Rika Denki Co. in Japan). The aggregation inhibition by the test substance was determined as the percentage of reduction from the maximal transmittance (the maximal aggregation) by PAF in the control PRP.
# PAF-induced hypotension = assay: Inhibitory action on PAF-induced hypotension in rats; assay type: in vivo, rat (Sprague-Dawley); conditions: for Inhibition of hypotensive effect: PAF 1 μg/kg i.v.
# Experimental: Male Sprague-Dawley rats weighing about 250 g were used. Cannulas were inserted into the unilateral femoral artery for measurement of blood pressure and into the unilateral femoral vein for administration of the drug solution. Blood pressure was measured via a pressure transducer and recorded on a polygraph. Blood pressure decrease was measured after intravenous (i.v.) injection of PAF at 1 μg/kg, and then the test substance [the compound (6) in Production Example 1] was given intravenously or orally; PAF at 1 μg/kg was given intravenously 5 minutes and 1, 2, 4, 6, and 8 hours after the intravenous injection, and 1, 2, 4, 6 and 8 hours after the oral administration, and the blood pressure decrease was measured.
# The inhibitory action on PAF-induced hypotension was expressed in the ratio of decrement of blood pressure due to PAF before the treatment with the test substance (mmHg) to the decrement after the treatment with the test substance (mmHg).
# [2] = system: Reversed passive Arthus reaction; assay: Reversed passive Arthus reaction in rat; assay type: in vivo, rat (Sprague-Dawley); conditions: iv, given intravenously, read-out: ID50 (inhibition of Arthus reaction, area stained blue)
# Experimental: Hair was removed at the back of a male Sprague-Dawley rat (7-week-old, weighing about 250 g) under slight anesthesia with ether and a solution of the test substance [the compound (6) obtained in the Production Example 1] in physiological saline was injected into the caudal vein at the dose of 0.2 ml per 100 g of body weight. Immediately 1 ml of 0.5% antigenic egg albumin solution in physiological saline was injected into the caudal vein. Immediately 0.1 ml of the rabbit anti-egg albumin antiserum (containing 6 mg protein antibody/ml) was given subcutaneously at a site each on the right and the left side of the back. Three hours later, 1 ml of 1% Evans Blue solution in physiological saline was injected intravenously, the skin was removed after 30 minutes, and the area stained blue was measured (in mm^2). The extent of inhibition was calculated by comparing the area with that in the group without treatment with the test substance.
# [3] = system: PAF-induced airway constriction; assay: Inhibition of PAF in tracheal obstruction (PAF-induced airway constriction); assay type: in vivo, guinea pig (Hartley); conditions: 0.03 mg/kg i.v., two minutes before PAF (0.3 μg/kg i.v.)
# Experimental: Male and female Hartley guinea pigs weighing about 400 g each were used. The animal was fixed in the supine position under anesthesia with urethane (1.5 g/kg, i.p.), one of the 4 branches of a cannula was inserted into the trachea, and two of the other 3 branches were connected to a respirator (Harvard apparatus rodent respirator). The last branch was connected to a bronchospasm transducer 7020 (Ugobasile). Air was pumped into the lung at the rate of 5 to 7 ml at a time and 70 times per minutes at the loading pressure to the lung of 10 cm H2 O, and the volume of the overflown air was recorded via a transducer on the Rectigraph (Rectigraph-8S, San-ei Sokki). After treatment with gallamine triethodide (1 mg/kg, i.v.), histamine dihydrochloride (10 μg/kg) was intravenously injected, and the responsiveness of the animal was investigated. Thirty seconds after intravenous injection of PAF (0.3 μg/kg), a maximal airway constriction was observed. Under the conditions, the test substance [the compound (6) obtained in the Production Example 1] was examined for its inhibitory action. The test substance was dissolved in physiological saline, and given intravenously two minutes before PAF administration.
# Acute toxicity in mice = assay type: in vivo, mouse (Jcl-ICR)
# Text: Male J cl-ICR mice (5 animals) (aged 5 weeks) were used.
# [4] = Stability test in the form of powders (30 days of storage, HPLC content); assay type: physicochemical; conditions: for remaining at 720 h: 30 days, powder in closed glass bottles, read-out: remaining percentage
# Experimental: The compounds obtained were examined for their stability in the form of powders. […] Procedure: About 100 mg each of the test substance was placed into glass bottles, which were then closed tightly and kept at room temperature (20±2° C.) and at 40° C. (not for the control compound) for 30 days. Determination of the content: An aliquot of the test substance was dissloved in the mobile phase for high performance liquid chromatography [acetonitrile:methanol:0.1% phosphoric acid=900:240:2100] and the content was determined by HPLC.
# Conditions of HPLC: column YMC ODS A302 4.6×150 mm
# [5] = system: endotoxin (ET)-induced hypotension; assay: Reversal of endotoxin (ET)-induced hypotension in rats; assay type: in vivo, rat (SD); conditions: Rattus norvegicus, iv; given eight minutes after ET (15 mg/kg)
# Experimental: Method: Male SD rats were anesthetized with sodium pentobarbital, and the right femoral artery and left femoral vein were cannulated for blood pressure measurement and for injection of the compound (6) obtained in the Production Example 1 or ET (E. Coli, 0111, B4), respectively. The compound (6) obtained in the Production Example 1 was given eight minutes after the injection of ET (15 mg/kg).
# [6] = system: endotoxin (ET)-induced death; assay: Inhibition of endotoxin (ET)-induced death in rats; assay type: in vivo, rat (SD)
# Experimental: Method: Male SD rats were used. ET (E. Coli, 0111, B4) (15 mg/kg) was given i.v. 5 min after the injection of the compound (6) obtained in the Production Example 1.
# [7] = system: endotoxin-induced disseminated intravascular coagulation (DIC); assay: Inhibition of experimental disseminated intravascular coagulation (DIC) in rats; assay type: in vivo, rat (SD)
# Experimental: Method: Male SD rats were anesthetized with sodium pentobarbital. Endotoxin (E. Coli, 0111, B4) (ET) was infused into the right femoral vein at a rate of 250 μg/kg/hr for 4 hr. The compound (6) obtained in the Production Example 1 (Test compound) at a dose of 200 μg/kg was given i.v. bolus 5 min. before the infusion of ET and was then infused at a rate of 200 μg/kg/hr for 4 hr.
# [8] = system: death induced by anaphylactic shock; assay: Protective effect against death induced by anaphylactic shock in mice; assay type: in vivo; conditions: Mus musculus, iv, 1 h; i.v. 5 min before rechallenge with BSA (1 mg/kg, i.v.); survival at 60 min; read-out: ED50 (protection from anaphylactic shock)
# Experimental: Method: Male mice were sensitized with bovine serum albumin (BSA) and killed Bordetella pertussis. Two to three weeks later, the mice were rechallenged with BSA (1 mg/kg, i.v.). Survival rate was determined 60 min after the injection of BSA. The compound (6) obtained in the Production Example 1 was given i.v. 5. min. before the rechallenge with BSA.
# acute renal failure = assay: Effect on acute renal failure in rats (renal artery occlusion/reperfusion); assay type: in vivo, rat (Sprague Dawley (Jcl)); conditions: 30 mg/kg oral, 1 hour prior to occlusion
# Experimental: Method: Male Sprague Dawley (Jcl) rats, 5 weeks old, were anesthetized with sodium pentobarbital (50 mg/kg, i.p.) and the renal artery was occluded bilaterally for 45 minutes followed by reperfusion for 20 hours. The blood was collected from the abdominal aorta under anesthesia for measurement of blood urea nitrogen (BUN).
# Results: The concentration of BUN was markedly elevated 20 hours after reperfusion.
structure (smiles),measurement,setting,value
"CCC[n+]1cc(Br)cc(C(=O)N(CCC(=O)NCCOC(=O)N2CCc3ccccc3C2)c2ccccc2)c1.O=[N+]([O-])[O-] [Compound (6), 3-bromo-5-[N-phenyl-N-[2-[[2-(1,2,3,4-tetrahydro-2-isoquinolylcarbonyloxy)ethyl]carbamoyl]ethyl]carbamoyl]-1-propylpyridinium nitrate]",inhibition at 3 µM,[1]; 3 × 10^-6 M,100%
same,inhibition at 0.3 µM,[1]; 3 × 10^-7 M,100%
same,inhibition at 0.03 µM,[1]; 3 × 10^-8 M,71%
same,Inhibition of hypotensive effect,"PAF-induced hypotension; 0.01 mg/kg i.v., 5 minutes",93%
same,Inhibition of hypotensive effect,"PAF-induced hypotension; 0.01 mg/kg i.v., 1 hour",84%
same,Inhibition of hypotensive effect,"PAF-induced hypotension; 0.01 mg/kg i.v., 2 hour",68%
same,Inhibition of hypotensive effect,"PAF-induced hypotension; 0.01 mg/kg i.v., 4 hour",48%
same,Inhibition of hypotensive effect,"PAF-induced hypotension; 0.01 mg/kg i.v., 6 hour",44%
same,Inhibition of hypotensive effect,"PAF-induced hypotension; 0.01 mg/kg i.v., 8 hour",24%
same,Inhibition of hypotensive effect,"PAF-induced hypotension; 1 mg/kg p.o., 1 hour",69%
same,Inhibition of hypotensive effect,"PAF-induced hypotension; 1 mg/kg p.o., 2 hour",87%
same,Inhibition of hypotensive effect,"PAF-induced hypotension; 1 mg/kg p.o., 4 hour",82%
same,Inhibition of hypotensive effect,"PAF-induced hypotension; 1 mg/kg p.o., 6 hour",76%
same,Inhibition of hypotensive effect,"PAF-induced hypotension; 1 mg/kg p.o., 8 hour",69%
same,PAF-antagonism after oral administration (in words),"PAF-induced hypotension; general statement, oral",excellent PAF-antagonism even after oral administration
same,ED50,[2],1.2 µg/kg
same,inhibition of PAF-induced airway constriction,[3],91.3%
same,"death until one week later (acute toxicity, intravenous)","Acute toxicity in mice; 10 mg/kg intravenously, male mice, 5 animals",no death was observed
same,"death until one week later (acute toxicity, oral)","Acute toxicity in mice; 1000 mg/kg orally, male mice, 5 animals",no death was observed
same,toxicity (in words),Acute toxicity in mice; general statement,low toxicity
same,stability (in words),"[4]; general statement, compared with the corresponding chloride",more stable than the corresponding chloride
same,remaining at 720 h,"[4]; powder, closed glass bottles, at 40° C.",99.3%
same,remaining at 720 h,"[4]; powder, closed glass bottles, at room temperature (20±2° C.)",100%
same,ED50,[5],1.2 µg/kg
same,Survival rate,"[6]; 10 μg/kg i.v. 5 min before ET 15 mg/kg i.v., 6 day",30%
same,Survival rate,"[6]; 100 μg/kg i.v. 5 min before ET 15 mg/kg i.v., 22 hr, P<0.05 vs control",60%
same,Survival rate,"[6]; 100 μg/kg i.v. 5 min before ET 15 mg/kg i.v., 6 day, P<0.05 vs control",40%
same,effect on survival rate of rats (in words),"[6]; 100 μg/kg, almost 1 week",significantly improved the survival rate
same,Fybrinogen,"[7]; 200 μg/kg before ET, then 200 μg/kg/hr for 4 hr, P<0.01 vs control, control 0.3 ± 0.1, normal 2.7 ± 0.1",1.2 ± 0.3 mg/ml plasma
same,FDP,"[7]; 200 μg/kg before ET, then 200 μg/kg/hr for 4 hr, P<0.01 vs control, control 16.8 ± 2.3, normal 0.5 ± 0.0",4.6 ± 0.8 μg/ml plasma
same,PT (prothrombin time),"[7]; 200 μg/kg before ET, then 200 μg/kg/hr for 4 hr, P<0.01 vs control, control 18.9 ± 1.3, normal 11.2 ± 0.2",14.0 ± 0.4 s
same,Platelets,"[7]; 200 μg/kg before ET, then 200 μg/kg/hr for 4 hr, P<0.01 vs control, control 23 ± 3, normal 71 ± 3",40 ± 4 × 10^4 /μl
same,APTT (activated partial thromboplastin time),"[7]; 200 μg/kg before ET, then 200 μg/kg/hr for 4 hr, P<0.01 vs control, control 58.3 ± 3.6, normal 35.3 ± 1.3",42.8 ± 1.5 s
same,effect on changes in DIC parameters (in words),[7]; 200 μg/kg i.v. bolus + 200 μg/kg/hr for 4 hr,significantly inhibited the changes in these DIC parameters
same,ED50,[8],2.6 µg/kg
same,effect on elevation of BUN (in words),acute renal failure,inhibited significantly the elevation of BUN
same,Blood urea nitrogen (BUN),"acute renal failure; 20 hours after reperfusion, P<0.05, control 110 ± 4",88 ± 2 mg/dL
"CCC[n+]1cc(Br)cc(C(=O)N(CCC(=O)NCCOC(=O)N2CCc3ccccc3C2)c2ccccc2)c1 [Compound (7), 3-Bromo-5-[N-phenyl-N-[2-[[2-(1,2,3,4-tetrahydro-2-isoquinolylcarbonyloxy)ethyl]carbamoyl]ethyl]carbamoyl]-1-propylpyridinium chloride, reference compound]",remaining at 720 h,[4]; at room temperature (20±2° C.),65%
